# Results from ChEMBL document CHEMBL3272295, “Drugs derived from cannabinoids. 5. delta6a,10a-Tetrahydrocannabinol and heterocyclic analogs containing aromatic side chains” (J Med Chem, 1976).
# Calls of active or inactive are those of the source. The calls are words filed in the database; no cut-off is given here.
# Assays:
# [1] = system: Mus musculus; assay: Antianxiety activity in albino BALB/cJ mouse assessed as reduction in footshock-induced fighting behavior at 10 mg/kg, po after 30 to 90 mins; type: functional; design: scale not given: the % may be the effect or the level left
# [2] = system: Mus musculus; assay: Analgesic activity in po dosed mouse assessed as inhibition of acetic acid-induced writhing administered 30 mins prior to acetic acid challenge measured after 5 mins for 20 mins; type: functional
# [3] = system: Rattus norvegicus; assay: Antiulcer activity in albino Sprague-Dawley rat shay ulcer model assessed as ulcer index scores at 20 mg/kg administered intraduodenally post pyloric ligation measured after 18.5 hrs relative to vehicle-treated control; type: functional
# [4] = system: Rattus norvegicus; assay: Antiulcer activity in albino Sprague-Dawley rat stress ulcer model assessed as prevention of stress-induced gastric lesions by measuring ulcer index score at 10 mg/kg, po administered 30 mins prior to stress measured after 4 hrs; type: functional, Stomach
# [5] = system: Rattus norvegicus; assay: Antisecretory activity in Sprague-Dawley rat assessed as decrease in pepsin output at 50 mg/kg, po administered 30 mins prior to pylorus ligation measured after 4 hrs relative to control; type: functional; design: scale not given: the % may be the effect or the level left
# [6] = system: Rattus norvegicus; assay: Antiulcer activity in albino Sprague-Dawley rat stress ulcer model assessed as prevention of stress-induced gastric lesions by measuring ulcer index score at 40 mg/kg, po administered 30 mins prior to stress measured after 4 hrs; type: functional, Stomach
# [7] = system: Canis familiaris; assay: Antianxiety activity in po dosed dog assessed as ataxia administered as single dose measured up to 24 hrs; type: functional; conditions: Canis lupus familiaris, read-out: MED
# [8] = system: Rattus norvegicus; assay: Antipsychotic activity in rat assessed as reduction of methamphetamine-induced hyperactivity at 20 mg/kg, po administered prior to methamphetamine challenge relative to vehicle-treated control; type: functional; design: scale not given: the % may be the effect or the level left
# [9] = system: Rattus norvegicus; assay: Antihypertensive activity in spontaneously hypertensive rat model assessed as reduction in blood pressure at 0.3 mg/kg, po after 3 hrs; type: functional; design: scale not given: the % may be the effect or the level left
# [10] = system: Felis catus; assay: Hypnotic activity in cat assessed as decrease in non-REM sleep time at 0.5 mg/kg administered orally through diet measured for 12 hrs by EEG analysis; type: functional; conditions: route oral
# [11] = system: Rattus norvegicus; assay: Antisecretory activity in Sprague-Dawley rat assessed as decrease in acid output at 50 mg/kg, po administered 30 mins prior to pylorus ligation measured after 4 hrs relative to control; type: functional; design: scale not given: the % may be the effect or the level left
# [12] = system: Rattus norvegicus; assay: Antisecretory activity in Sprague-Dawley rat assessed as decrease in acidity at 50 mg/kg, po administered 30 mins prior to pylorus ligation measured after 4 hrs relative to control; type: functional; design: scale not given: the % may be the effect or the level left
# [13] = system: Rattus norvegicus; assay: Antisecretory activity in Sprague-Dawley rat assessed as decrease in volume at 50 mg/kg, po administered 30 mins prior to pylorus ligation measured after 4 hrs relative to control; type: functional; design: scale not given: the % may be the effect or the level left
# [14] = system: Felis catus; assay: Hypnotic activity in cat assessed as increase in total sleep time at 0.5 mg/kg administered orally through diet measured for 12 hrs by EEG analysis; type: functional; conditions: route oral
# [15] = system: Rattus norvegicus; assay: Antiulcer activity in albino Sprague-Dawley rat reserpine ulcer model assessed as prevention of reserpine-induced gastric lesions by measuring ulcer index scores at 50 mg/kg, po administered 30 mins prior to reserpine challenge measured after 6 hrs; type: functional, Stomach
# [16] = system: Felis catus; assay: Hypnotic activity in cat assessed as increase in total sleep time at 0.25 mg/kg administered orally through diet measured for 12 hrs by EEG analysis; type: functional; conditions: route oral
# [17] = system: Rattus norvegicus; assay: Antianxiety activity in Long-Evans rat assessed as reduction in motor activity at 1 mg/kg, po after 2 hrs relative to vehicle-treated control; type: functional; design: scale not given: the % may be the effect or the level left
# [18] = system: Rattus norvegicus; assay: Antihypertensive activity in spontaneously hypertensive rat model assessed as reduction in blood pressure at 10 mg/kg, po after 3 hrs; type: functional; design: scale not given: the % may be the effect or the level left
# [19] = Acute toxicity in po dosed mouse; type: organism-based; conditions: in vivo
# [20] = system: Rattus norvegicus; assay: Antihypertensive activity in spontaneously hypertensive rat model assessed as reduction in blood pressure at 0.3 mg/kg, po after 24 hrs; type: functional; design: scale not given: the % may be the effect or the level left
# [21] = system: Rattus norvegicus; assay: Antiulcer activity in albino Sprague-Dawley rat shay ulcer model assessed as ulcer index scores at 50 mg/kg administered intraduodenally post pyloric ligation measured after 18.5 hrs relative to vehicle-treated control; type: functional; conditions: route intraduodenal
# [22] = species: Rattus norvegicus; assay: animal or person; type: functional; conditions: Charles River, route oral
# Description: Antidiarrheal activity in Charles River rat assessed as inhibition of castor oil-induced diarrhea by measuring protected animals at 0.5 mg/kg, po administered 1 hr prior to castor oil challenge measured after 1 hr relative to vehicle-treated control
# [23] = system: Rattus norvegicus; assay: Antiulcer activity in albino Sprague-Dawley rat reserpine ulcer model assessed as prevention of reserpine-induced gastric lesions by measuring ulcer index scores at 10 mg/kg, po administered 30 mins prior to reserpine challenge measured after 6 hrs; type: functional; conditions: Stomach
# [24] = system: Rattus norvegicus; assay: Antipsychotic activity in rat assessed as reduction of methamphetamine-induced hyperactivity at 10 mg/kg, po administered prior to methamphetamine challenge relative to vehicle-treated control; type: functional; design: scale not given: the % may be the effect or the level left
# [25] = system: Felis catus; assay: Hypnotic activity in cat assessed as increase in non-REM sleep time at 0.25 mg/kg administered orally through diet measured for 12 hrs by EEG analysis; type: functional; conditions: route oral
# [26] = system: Rattus norvegicus; assay: Antianxiety activity in Long-Evans rat assessed as reduction in motor activity at 4 mg/kg, po after 2 hrs relative to vehicle-treated control; type: functional; design: scale not given: the % may be the effect or the level left
# [27] = system: Rattus norvegicus; assay: Analgesic activity in po dosed Sprague-Dawley rat after 15 to 90 mins by tail flick test; type: functional
# [28] = system: Rattus norvegicus; assay: Antihypertensive activity in spontaneously hypertensive rat model assessed as reduction in blood pressure at 10 mg/kg, po after 24 hrs; type: functional; design: scale not given: the % may be the effect or the level left
# [29] = system: Felis catus; assay: Hypnotic activity in cat assessed as decrease in non-REM sleep time at 4 mg/kg administered orally through diet measured for 12 hrs by EEG analysis; type: functional; conditions: route oral
# [30] = system: Rattus norvegicus; assay: Increase in pepsin output in Sprague-Dawley rat at 50 mg/kg, po administered 30 mins prior to pylorus ligation measured after 4 hrs relative to control; type: functional
# [31] = system: Mus musculus; assay: Antidepressant activity in mouse assessed as potentiation of DOPA-induced effect at 5 mg/kg, po administered 4 hrs prior to DOPA challenge; type: functional, organism-based; design: dose 5 mg/kg
# [32] = system: Rattus norvegicus; assay: Antihypertensive activity in spontaneously hypertensive rat model assessed as reduction in blood pressure at 25 mg/kg, po after 24 hrs; type: functional; design: scale not given: the % may be the effect or the level left
# [33] = system: Felis catus; assay: Hypnotic activity in cat assessed as increase in total sleep time at 4 mg/kg administered orally through diet measured for 12 hrs by EEG analysis; type: functional; conditions: route oral
# [34] = system: Rattus norvegicus; assay: Antihypertensive activity in spontaneously hypertensive rat model assessed as reduction in blood pressure at 25 mg/kg, po after 3 hrs; type: functional; design: scale not given: the % may be the effect or the level left
# [35] = system: Felis catus; assay: Hypnotic activity in cat assessed as increase in total sleep time at 1 mg/kg administered orally through diet measured for 12 hrs by EEG analysis; type: functional; conditions: route oral
# [36] = system: Mus musculus; assay: Anticonvulsant activity in po dosed mouse assessed as dose required to protect 80% of animal measured after 1 to 4 hrs by audiogenic seizure test; type: functional
# [37] = system: Rattus norvegicus; assay: Antipsychotic activity in rat assessed as reduction of methamphetamine-induced hyperactivity at 5 mg/kg, po administered prior to methamphetamine challenge relative to vehicle-treated control; type: functional; design: scale not given: the % may be the effect or the level left
# [38] = system: Rattus norvegicus; assay: Increase in volume in Sprague-Dawley rat at 50 mg/kg, po administered 30 mins prior to pylorus ligation measured after 4 hrs relative to control; type: functional
# [39] = system: Rattus norvegicus; assay: Antianxiety activity in Long-Evans rat assessed as reduction in motor activity at 5 mg/kg, po after 2 hrs relative to vehicle-treated control; type: functional; design: scale not given: the % may be the effect or the level left
# [40] = system: Rattus norvegicus; assay: Antianxiety activity in Long-Evans rat assessed as reduction in motor activity at 20 mg/kg, po after 2 hrs relative to vehicle-treated control; type: functional; design: scale not given: the % may be the effect or the level left
# [41] = system: Rhesus monkey; assay: Antianxiety activity in po dosed rhesus monkey assessed as antiagressive behavior measured every hour post dosing; type: functional; conditions: Macaca mulatta, read-out: MED
# [42] = system: Rattus norvegicus; assay: Increase in pepsin concentration in Sprague-Dawley rat at 50 mg/kg, po administered 30 mins prior to pylorus ligation measured after 4 hrs relative to control; type: functional
# [43] = system: Felis catus; assay: Hypnotic activity in cat assessed as increase in non-REM sleep time at 1 mg/kg administered orally through diet measured for 12 hrs by EEG analysis; type: functional; conditions: route oral
# [44] = system: Mus musculus; assay: Increase in footshock-induced fighting behavior in albino BALB/cJ mouse at 5 mg/kg, po after 30 to 90 mins; type: functional
# [45] = system: Rattus norvegicus; assay: Antipsychotic activity in rat assessed as reduction of methamphetamine-induced hyperactivity at 1 mg/kg, po administered prior to methamphetamine challenge relative to vehicle-treated control; type: functional; design: scale not given: the % may be the effect or the level left
# [46] = system: Felis catus; assay: Hypnotic activity in cat assessed as increase in non-REM sleep time at 0.5 mg/kg administered orally through diet measured for 12 hrs by EEG analysis; type: functional; conditions: route oral
# [47] = system: Rattus norvegicus; assay: Antianxiety activity in Long-Evans rat assessed as reduction in motor activity at 10 mg/kg, po after 2 hrs relative to vehicle-treated control; type: functional; design: scale not given: the % may be the effect or the level left
# [48] = system: Rattus norvegicus; assay: Antihypertensive activity in spontaneously hypertensive rat model assessed as reduction in blood pressure at 30 mg/kg, po after 24 hrs; type: functional; design: scale not given: the % may be the effect or the level left
# [49] = system: Rattus norvegicus; assay: Antihypertensive activity in spontaneously hypertensive rat model assessed as reduction in blood pressure at 30 mg/kg, po after 3 hrs; type: functional; design: scale not given: the % may be the effect or the level left
# [50] = system: Rhesus monkey; assay: Antianxiety activity in rhesus monkey assessed as antiagressive behavior at 10 mg/kg, po measured every hour post dosing; type: functional, organism-based; design: dose 10 mg/kg; conditions: Macaca mulatta
# [51] = system: Mus musculus; assay: Analgesic activity in mouse assessed as inhibition of acetic acid-induced writhing at 40 mg/kg, po administered 30 mins prior to acetic acid challenge measured after 5 mins for 20 mins; type: functional
Structure (SMILES),Activity [1],ED50 [2],minimal effective dose [7],Activity [11],Activity [12],Time [14],Activity [18],LD50 [19],inhibition in vivo at 0.5 mg/kg [22],Activity [24],ED50 [27],Activity [28],Activity [37],Activity [39],also measured
C#CCN1CCC2=C(C1)c1c(O)cc(C(C)CCCc3ccc(F)cc3)cc1OC2(C)C (stereo not given),47%,5.3 mg/kg,1 mg/kg,42.9%,12.8%,99 min,30%,≥ 1000 mg/kg,53%,8%,3.7 mg/kg,15%,–,–,Activity [3]: Active; UI [4]: 1.7; Activity [5]: 22.2%; UI [6]: 1.4; Activity [8]: 34%; Activity [9]: 22%; Time [10]: -20 min; Activity [13]: 33.3%; UI [15]: 1.5; Time [16]: 45 min; Activity [17]: 60%; Activity [20]: 15%; UI [21]: 1.3; Activity [23]: inactive; Time [25]: 45 min; Activity [26]: 77%
CCCCCc1cc(O)c2c(c1)OC(C)(C)[C@@H]1CCC(C)=C[C@@H]21 [DRONABINOL],68%,43 mg/kg,0.5 mg/kg,7.3%,7.5%,–,6%,≥ 1000 mg/kg,0%,41%,–,8%,15%,14%,Time [29]: -3 min; Activity [30]: 8.9%; Activity [31]: Active; Activity [32]: 21%; Time [33]: 17 min; Activity [34]: 39%; Time [35]: 29 min; Activity [36]: 20 mg/kg; Activity [38]: 0.7%; Activity [40]: 72%; minimal effective dose [41]: 1 mg/kg; Activity [42]: 8.2%; Time [43]: 1 min
C#CCN1CCC2=C(C1)c1c(O)cc(C(C)C(C)CCc3ccc(F)cc3)cc1OC2(C)C (stereo not given),–,4.4 mg/kg,10 mg/kg,–,–,58 min,–,≥ 1000 mg/kg,0%,–,8.3 mg/kg,–,53%,59%,Activity [44]: 30%; Activity [45]: 23%; Time [46]: 60 min; Activity [47]: 73%
CC1CCC2=C(C1)c1c(O)cc(C(C)CCCN(C)C)cc1OC2(C)C (stereo not given),38%,–,–,–,–,–,9%,≥ 1000 mg/kg,–,–,–,13%,20%,12%,Activity [48]: 6%; Activity [49]: 10%; Activity [50]: inactive; inhibition in vivo at 40 mg/kg [51]: 18%
